From article PMC9820303, “^αN-Acetyl β-Endorphin Is an Endogenous Ligand of σ1Rs That Regulates Mu-Opioid Receptor Signaling by Exchanging G Proteins for σ2Rs in σ1R Oligomers” (International Journal of Molecular Sciences, 2022)

Tested on: CD1 mice (wild-type and σ1R−/−)
Test: Supraspinal analgesia, warm water (52 °C) tail-flick test
Type: in vivo, mouse
Conditions: for effect of exogenous σ1R ligands on β-End 1–31 analgesia: 3 nmol icv 20 min before 0.5 nmol β-End 1–31 icv; for effect on DAMGO analgesia: icv 20 min before DAMGO (0.1 nmol icv), evaluated 15 min after DAMGO; for effect on analgesia of the DOR agonists DPDPE and D-Ala^2 Deltorphin II: icv 20 min before DPDPE (10 nmol) or D-Ala2-deltorphin II (10 nmol) icv; for effect of C-terminal peptides on β-End 1–31 and morphine analgesia: icv 20 min before 0.5 nmol β-End 1–31 or 10 nmol morphine icv; for effect on β-End 1–31 analgesia, nonphysiological fragments: 1 nmol icv 20 min before 0.5 nmol β-End 1–31 icv, 6 mice
Method: Upper panel: the withdrawal thresholds of the contralateral and ipsilateral paws were measured before (indicated as 0) and up to 14 days after surgery. […] Middle panel: 0.3 and 3 nmol of ^αN-acetyl β-End 1–31 were administered icv 7 days after surgery, and the nociceptive threshold was evaluated at the indicated postinjection intervals (in minutes). For every time interval studied in min or days, * indicates a significant difference from the group that received saline instead of ^αN-acetyl β-End 1–31; ϕ significant difference from the effect of 3 nmol ^αN-acetyl β-End 1–31. […] All data are presented as the mean ± SD of six mice. ANOVA followed by the Holm–Sidak multiple comparisons test, p < 0.05, 1-β > 0.80. […] Upper panel: wild-type mice were injected icv with saline, ^αN-acetyl β-End 1–31 (1 nmol/mouse) or the combination of the σ1R agonist PPCC (3 nmol/mouse) plus ^αN-acetyl β-End 1–31 20 min before morphine and β-End 1–31. Analgesia was evaluated by the warm water (52 °C) tail-flick test at the interval postinjection corresponding to their peak effect, 30 min. Lower panel: σ1R^−/− mice received 1 nmol ^αN-acetyl β-End 1–31, 20 min before morphine and β-End 1–31 and analgesia was evaluated as described above. Eight mice were used per strain and treatment. * Significant difference with respect to the group treated with morphine or β-End 1–31 alone. ANOVA followed by the Holm–Sidak multiple comparisons test, p < 0.05, 1-β > 0.80.
Figure 3 Effect of physiological β-End 1–31 derivatives on morphine and β-End 1–31 analgesia. […] (A) The mice were icv-injected with 25 nmol of β-End 1–26, β-End 1–27 and ^αN-acetylated derivatives 20 min before icv 0.5 nmol β-End 1–31. Analgesia was determined at the indicated postinjection intervals. (B) CD1 wild-type and σ1R^−/− mice were administered C terminal peptide sequences 27–31, 28–31 and 30–31 of β-End 1–31 through an icv injection 20 min before 0.5 nmol of the whole β-End 1–31 and morphine (10 nmols) were injected icv. […] (C) A series of exogenous σ1R ligands (3 nmol) were icv-injected 20 min before 0.5 nmol β-End 1–31 was administered via icv in wild-type mice. The σ1R antagonist S1RA was also icv-injected before β-End 1–31 was administered icv in σ1R^−/− mice. (D) The effects of several doses of S1RA on morphine analgesia were studied in wild-type and σ1R^−/− mice. […] ANOVA followed by the Holm–Sidak multiple comparisons test, p < 0.05, 1-β > 0.80.
(A) The effect of σ1R deletion on opioid- and cannabinoid-induced analgesia. Analgesic compounds were icv-injected into wild-type and σ1R^−/− mice, and analgesia was evaluated 30 min after morphine (3 nmol) and β-End 1–31 (0.5 nmol), 15 min after DAMGO (0.1 nmol) and DPDPE (10 nmol) and 10 min after WIN55,212-2 (15 nmol). The bars are the mean ± SD of eight mice per strain and treatment. * Significant difference with respect to the effect of the analgesic substance in the wild-type group. ANOVA followed by the Holm–Sidak multiple comparisons test, p < 0.05, 1-β > 0.80. (B) Coprecipitation of G proteins with MORs. Solubilized mouse brain cortical membranes enriched in synaptosomes (SBM) from CD1 wild-type (WT) and σ1R^−/− mice were solubilized with sonication in the presence of 1% NP-40. Non-soluble debris was eliminated, and the samples were then incubated overnight at 4 °C with affinity-purified biotinylated IgGs that were raised against extracellular regions of the MOR. Protein complexes that were immunoprecipitated with streptavidin agarose were extensively washed and then resolved by SDS-PAGE.

Br.Br.CN(C)CCN(C)CCc1ccc(Cl)c(Cl)c1 [BD1047, N′-[2-(3,4-dichlorophenyl)ethyl]-N,N,N′-trimethylethane-1,2-diamine;dihydrobromide, reference compound] was tested, and the “effect of exogenous σ1R ligands on β-End 1–31 analgesia” value (“effect of exogenous σ1R ligands” below) (wild-type mice) was “diminished”.
With COC(=O)[C@]1(c2ccc(C)cc2)C[C@@H]1CN1CCC(O)(c2ccccc2)CC1 [PPCC, (1R,2S/1S,2R)-2-[4-hydroxy-4-phenylpiperidin-1-yl)methyl]-1-(4-methylphenyl) cyclopropanecarboxylate, reference compound] the “effect of exogenous σ1R ligands” value (wild-type mice) was “did not alter the effect of β-End 1–31”, the “effect on the antagonist activity of β-End C-terminal peptides” value (PPCC 3 nmol icv 10 min before the β-End C-terminal peptides) was “prevented” and the “effect on the impairment of morphine and β-End 1–31 analgesia by ^αN-acetyl β-End 1–31” value (PPCC 3 nmol/mouse icv plus ^αN-acetyl β-End 1–31, wild-type mice) was “prevented the impairing effects”.
In the case of Cl.O=C(OCCN1CCOCC1)C1(c2ccccc2)CCCCC1 [PRE084, 2-(4-morpholinethyl)-1-phenylcyclohexanecarboxylate hydrochloride, reference compound], the “effect of exogenous σ1R ligands” value (wild-type mice) is reported as “did not alter the effect of β-End 1–31”.
For Cc1cc(OCCN2CCOCC2)nn1-c1ccc2ccccc2c1 [S1RA], the “effect of exogenous σ1R ligands” value (wild-type mice) was “diminished”, the “effect on morphine analgesia, 3 nmol” value (3 nmol icv, wild-type mice) was “produced the maximum increase” and the “effect on morphine analgesia, 10 nmol” value (10 nmol icv, wild-type mice) was “barely altered morphine effects”. The “effect on DAMGO analgesia” value was “enhanced DAMGO analgesia”, the “effect on analgesia of the DOR agonists DPDPE and D-Ala^2 Deltorphin II” value was “neither ^αN-acetyl β-End 1–31 nor S1RA altered the analgesic effects” and the “effect on morphine analgesia” value (icv before morphine, wild-type mice) was “enhanced morphine analgesia”.
For “KKGE [β-End 28–31, C-terminal tetrapeptide of β-End 1–31]”, the “effect of C-terminal peptides on β-End 1–31 and morphine analgesia” value (wild-type mice) was “reduced the analgesic activity of β-End 1–31 and morphine”.
“YKKGE [β-End 27–31, C-terminal pentapeptide of β-End 1–31]” was tested, and the “effect of C-terminal peptides on β-End 1–31 and morphine analgesia” value (wild-type mice) was “reduced the analgesic activity of β-End 1–31 and morphine”.
With “^αN-acetyl β-End 1–31: β-End 1–31 acetylated at N terminal Y1, α position” the “effect on morphine and β-End 1–31 analgesic potency, 1 pmol” value (1 pmol icv 30 min before morphine and β-End 1–31, wild-type mice) was “significant reductions in their analgesic potency”, the “effect on DAMGO analgesia” value was “enhanced DAMGO analgesia” and the “effect on analgesia of the DOR agonists DPDPE and D-Ala^2 Deltorphin II” value was “neither ^αN-acetyl β-End 1–31 nor S1RA altered the analgesic effects”. For the same molecule, the “icv dose at which the regulatory effects on analgesia reached a maximum” value (icv, persisted at 1 pmol or 1 nmol) was 1 to 10 fmols, the “effect on DAMGO and clonidine analgesia” value (increasing icv doses 20 min before DAMGO (0.1 nmol) or clonidine (150 nmol) icv, wild-type mice) was “increased” and the “effect on morphine and β-End 1–31 analgesia in σ1R−/− mice” value (σ1R−/− mice, icv before the opioids) was “not altered”.
In the case of “β-End 6–31: β-End 1–31 lacking the N-terminal met-enkephalin 1–5 sequence (TSEKSQTPLVTLFKNAIIKNAYKKGE; Beta-endorphin; UniProt P01189 242-267, looked up, fragment)”, the “effect on β-End 1–31 analgesia, nonphysiological fragments” value is reported as “not produced”.
In the case of “β-End 22–31: nonphysiological C-terminal sequence of β-End 1–31 (IIKNAYKKGE; Beta-endorphin; UniProt P01189 258-267, looked up, fragment)”, the “effect on β-End 1–31 analgesia, nonphysiological fragments” value is reported as “reduced β-End 1–31 analgesia”.
